Where only a bound is given, the exact number is not on record here.

In the first experiment the target is T1, STAT6 (Homo sapiens, UniProt P42226).
T1 construct: These cells express endogenous STAT6; host or cells: HeLa LgBiT clone 4.14
T1 sequence (P42226 1-847): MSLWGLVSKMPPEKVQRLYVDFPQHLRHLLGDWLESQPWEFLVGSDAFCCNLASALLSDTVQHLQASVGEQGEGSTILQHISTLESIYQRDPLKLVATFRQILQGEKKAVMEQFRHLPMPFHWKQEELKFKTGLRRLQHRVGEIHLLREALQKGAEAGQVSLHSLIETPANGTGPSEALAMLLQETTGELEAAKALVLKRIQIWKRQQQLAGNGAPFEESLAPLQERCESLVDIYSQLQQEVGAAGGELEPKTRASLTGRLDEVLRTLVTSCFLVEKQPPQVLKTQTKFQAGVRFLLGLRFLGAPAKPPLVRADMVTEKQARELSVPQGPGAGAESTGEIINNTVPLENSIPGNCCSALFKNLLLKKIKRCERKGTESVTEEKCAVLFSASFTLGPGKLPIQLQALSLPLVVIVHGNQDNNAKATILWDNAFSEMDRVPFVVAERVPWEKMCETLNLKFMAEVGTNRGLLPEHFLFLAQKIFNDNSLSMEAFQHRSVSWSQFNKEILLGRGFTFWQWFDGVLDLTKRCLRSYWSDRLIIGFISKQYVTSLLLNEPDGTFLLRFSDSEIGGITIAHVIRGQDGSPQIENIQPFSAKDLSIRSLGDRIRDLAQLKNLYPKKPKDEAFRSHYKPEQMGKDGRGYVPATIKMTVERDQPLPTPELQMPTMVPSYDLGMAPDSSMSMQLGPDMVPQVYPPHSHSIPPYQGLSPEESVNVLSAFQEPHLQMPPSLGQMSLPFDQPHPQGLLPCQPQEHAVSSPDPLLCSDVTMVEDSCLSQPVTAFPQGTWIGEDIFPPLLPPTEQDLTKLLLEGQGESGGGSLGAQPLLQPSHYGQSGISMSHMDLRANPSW
Briefly: Stat6 Degrader Assay (HiBiT based, HeLa LgBiT clone 4.14). It is filed as cell-based. As to conditions: HeLa LgBiT clone 4.14 HiBiT-STAT6, 4-24 h incubation; read-out: STAT6 degradation Emax. Summed up: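 HeLa LgBiT clone 4.14 cells with CRISPR HiBiT-tagged endogenous STAT6, 5000 cells/well, compound dosed then incubated 4-24 h at 37° C, 5% CO2. Nano-Glo substrate added, 0.5 h, luminescence read as non-degraded STAT6. Terfenadine 50 μM (cell kill) defines 100% degradation.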
(In general: The HiBiT peptide binds its large partner to form an active luciferase.)
In the case of `CNc1cc(=O)n(-c2ccnc3c2cc(CN2CCC(c4c(F)cc(C(=O)N5CCC(CCn6cc(-c7ccc8c(c7)n(C)c(=O)n8C7CCC(=O)NC7=O)nn6)CC5)cc4F)CC2)n3C)cc1F` (stereo not drawn) [Example 3u263, 3-(5-(1-(2-(1-(3,5-difluoro-4-(1-((4-(5-fluoro-4-(methylamino)-2-oxopyridin-1 (2H)-yl)-1-methyl-1H-pyrrolo[2,3-b]pyridin-2-yl)methyl)piperidin-4-yl)benzoyl)piperidin-4-yl)ethyl)-1H-1,2,3-triazol-4-yl)-3-methyl-2-oxo-2,3-dihydro-1H-benzo[d]imidazol-1-yl)piperidine-2,6-dione], the Emax fell in the range of 70 to 80%.

For the compound `C[C@H](c1cc2c(-n3ccc4[nH]ncc4c3=O)ccnc2n1C)N1CCC(c2ccc(C(=O)N3CCC(CN4CCN(Cc5ccc6c(c5)oc(=O)n6C5CCC(=O)NC5=O)CC4)CC3)cc2)CC1` (stereo partly drawn) [Example 3u265, 3-(6-((4-((1-(4-(1-((R)-1-(1-methyl-4-(4-oxo-1,4-dihydro-5H-pyrazolo[4,3-c]pyridin-5-yl)-1H-pyrrolo[2,3-b]pyridin-2-yl)ethyl)piperidin-4-yl)benzoyl)piperidin-4-yl)methyl)piperazin-1-yl)methyl)-2-oxobenzo[d]oxazol-3 (2H)-yl)piperidine-2,6-dione], the Emax is less than 20%.

In the case of `Cc1cc(C(=O)N2CCC(CN3CCC(Cc4ccc5c(c4)n(C)c(=O)n5C4CCC(=O)NC4=O)CC3)CC2)cc(F)c1C1CCN(Cc2cc3c(-n4ccc(N)cc4=O)ccnc3n2C)CC1` (stereo not drawn) [Example 3u267, 3-(5-((1-((1-(4-(1-((4-(4-amino-2-oxopyridin-1 (2H)-yl)-1-methyl-1H-pyrrolo[2,3-b]pyridin-2-yl)methyl)piperidin-4-yl)-3-fluoro-5-methylbenzoyl)piperidin-4-yl)methyl)piperidin-4-yl)methyl)-3-methyl-2-oxo-2,3-dihydro-1H-benzo[d]imidazol-1-yl)piperidine-2,6-dione], the Emax lay in the range of 50 to 60%.

As for `CNc1cc(=O)n(-c2ccnc3c2cc([C@H](C)N2CC=C(c4c(C)cc(C(=O)N5CCC(CN6CCN(c7ccc8c(c7)n(C7CCC(=O)NC7=O)c(=O)n8C)CC6)CC5)cc4F)CC2)n3C)cc1F` (stereo partly drawn) [Example 3u272, 3-(6-(4-((1-(3-fluoro-4-(1-((S)-1-(4-(5-fluoro-4-(methylamino)-2-oxopyridin-1 (2H)-yl)-1-methyl-1H-pyrrolo[2,3-b]pyridin-2-yl)ethyl)-1,2,3,6-tetrahydropyridin-4-yl)-5-methylbenzoyl)piperidin-4-yl)methyl)piperazin-1-yl)-3-methyl-2-oxo-2,3-dihydro-1H-benzo[d]imidazol-1-yl)piperidine-2,6-dione], the Emax was less than 20%.

Consider `CNc1ccn(-c2ccnc3c2cc(CN2CCC(c4c(F)cc(C(=O)N5CCC(CN6CCN(c7cc8c(cc7F)n(C7CCC(=O)NC7=O)c(=O)n8C)CC6)CC5)cc4F)CC2)n3C)c(=O)c1F` (stereo not drawn) [Example 3u274, 3-(5-(4-((1-(3,5-difluoro-4-(1-((4-(3-fluoro-4-(methylamino)-2-oxopyridin-1 (2H)-yl)-1-methyl-1H-pyrrolo[2,3-b]pyridin-2-yl)methyl)piperidin-4-yl)benzoyl)piperidin-4-yl)methyl)piperazin-1-yl)-6-fluoro-3-methyl-2-oxo-2,3-dihydro-1H-benzo[d]imidazol-1-yl)piperidine-2,6-dione], for which the Emax is less than 20%.

Staying with this experiment, now noted: HeLa LgBiT clone 4.14 HiBiT-STAT6, 4-24 h incubation; values given for compounds with >80% Emax; geometric mean; read-out: STAT6 degradation DC50.
Turning to `CNc1ccn(-c2ccnc3c2cc(CN2CCC(c4c(F)cc(C(=O)N5CCC(CN6CCN(C(=O)c7ccc8c(c7)n(C)c(=O)n8C7CCC(=O)NC7=O)CC6)CC5)cc4F)CC2)n3C)c(=O)c1` (stereo not drawn) [Example 3u264, 3-(5-(4-((1-(3,5-difluoro-4-(1-((1-methyl-4-(4-(methylamino)-2-oxopyridin-1 (2H)-yl)-1H-pyrrolo[2,3-b]pyridin-2-yl)methyl)piperidin-4-yl)benzoyl)piperidin-4-yl)methyl)piperazine-1-carbonyl)-3-methyl-2-oxo-2,3-dihydro-1H-benzo[d]imidazol-1-yl)piperidine-2,6-dione], the DC50 worked out at 5.9 nM.

For `CNc1ccn(-c2ccnc3c2cc([C@H](C)N2CC=C(c4c(C)cc(C(=O)N5CCn6c(nnc6C6CCN(Cc7ccc8c(c7)n(C)c(=O)n8C7CCC(=O)NC7=O)CC6)C5)cc4F)CC2)n3C)c(=O)c1` (stereo partly drawn) [Example 3u275, 3-(5-((4-(7-(3-fluoro-5-methyl-4-(1-((S)-1-(1-methyl-4-(4-(methylamino)-2-oxopyridin-1 (2H)-yl)-1H-pyrrolo[2,3-b]pyridin-2-yl)ethyl)-1,2,3,6-tetrahydropyridin-4-yl)benzoyl)-5,6,7,8-tetrahydro-[1,2,4]triazolo[4,3-a]pyrazin-3-yl)piperidin-1-yl)methyl)-3-methyl-2-oxo-2,3-dihydro-1H-benzo[d]imidazol-1-yl)piperidine-2,6-dione], the DC50 was determined as 57.4 nM.

Take `CNc1cc(=O)n(-c2ccnc3c2cc([C@H](C)N2CC=C(c4c(C)cc(C(=O)N5CCC(CN6CCN(c7ccc8c(c7)n(C7CC7)c(=O)n8C7CCC(=O)NC7=O)CC6)CC5)cc4F)CC2)n3C)cc1F` (stereo partly drawn) [Example 3u276, 3-(3-cyclopropyl-5-(4-((1-(3-fluoro-4-(1-((S)-1-(4-(5-fluoro-4-(methylamino)-2-oxopyridin-1 (2H)-yl)-1-methyl-1H-pyrrolo[2,3-b]pyridin-2-yl)ethyl)-1,2,3,6-tetrahydropyridin-4-yl)-5-methyl-benzoyl)piperidin-4-yl)methyl)piperazin-1-yl)-2-oxo-2,3-dihydro-1H-benzo[d]imidazol-1-yl)piperidine-2,6-dione]: the DC50 came to 4.3 nM.

Consider `CNc1ccn(-c2ccnc3c2cc([C@H](C)N2CC=C(c4c(C)cc(C(=O)N5CCn6nc(CN7CCN(c8ccc9c(c8)n(C)c(=O)n9C8CCC(=O)NC8=O)CC7)cc6C5)cc4F)CC2)n3C)c(=O)c1` (stereo partly drawn) [Example 3u277, 3-(5-(4-((5-(3-fluoro-5-methyl-4-(1-((S)-1-(1-methyl-4-(4-(methylamino)-2-oxopyridin-1 (2H)-yl)-1H-pyrrolo[2,3-b]pyridin-2-yl)ethyl)-1,2,3,6-tetrahydropyridin-4-yl)benzoyl)-4,5,6,7-tetrahydropyrazolo[1,5-a]pyrazin-2-yl)methyl)piperazin-1-yl)-3-methyl-2-oxo-2,3-dihydro-1H-benzo[d]imidazol-1-yl)piperidine-2,6-dione], for which the DC50 stood at 0.4 nM.

Broadly, the Emax is the size of the effect at its maximum, as opposed to the concentration needed. The DC50 is the concentration giving 50% degradation.
